Measurements as given in US9987280B2, “SIRT1 inhibitors and stem cell rejuvenation” (City of Hope, priority 2013, dated 2018).

What was measured:
[1] = system: Burkitt lymphoma; settings: single agent; cited from earlier work
[2] = system: Ku70; assay: Immunoprecipitation of LSD1 or SIRT1 in KCL-22 cells to detect interaction with Ku70; type: cell-based
Method: IP of LSD1 or SIRT1 was carried out in KCL-22 cells to detect their interaction with Ku70, respectively. […] (B) Without and with treatment of 1 mM H2O2 for 1 h and 0.25 μM camptothecin (CPT) for 12 h. Flag was used for IP control.
To explore the mechanisms, Applicants used immunoprecipitation (IP) assay to examine SIRT1, LSD1 and Ku70 interaction.

[3] = system: KCL-22 CML cells; settings: KCL-22 CML cells upon imatinib treatment; cited from earlier work
[4] = 2.5 μM imatinib (STI) for 24 and 48 h

## O=c1[nH]c(S)nc(-c2ccccc2)c1Cc1c(O)ccc2ccccc12 [cambinol, 5-[(2-hydroxy-1-naphthyl)methyl]-2-mercapto-6-phenyl-4(3H)-pyrimidinone]
[1]
  sensitivity of Burkitt lymphoma: sensitive

## CC[C@@]1(O)C(=O)OCc2c1cc1n(c2=O)Cc2cc3ccccc3nc2-1 [camptothecin]
[2]; 0.25 μM camptothecin (CPT) for 12 h
  LSD1/SIRT1 interaction with Ku70: switch of LSD1/SIRT1 interaction with Ku70

## OO [hydrogen peroxide]
[2]; 1 mM H2O2 for 1 h
  LSD1/SIRT1 interaction with Ku70: switch of LSD1/SIRT1 interaction with Ku70

## Cc1ccc(NC(=O)c2ccc(CN3CCN(C)CC3)cc2)cc1Nc1nccc(-c2cccnc2)n1 [imatinib]
[2]; [4]
  LSD1 interaction with Ku70: reduced
  SIRT1 interaction with Ku70: rapidly enhanced
[2]; 48 h drug treatment
  total SIRT1 level: partially reduced
[3]
  acquisition of T315I BCR-ABL kinase domain mutation: rapidly acquire T315I BCR-ABL kinase domain mutation
